Source: US20240246955A1, “TROPOMYOSIN RECEPTOR KINASE (TRK) DEGRADATION COMPOUNDS AND METHODS OF USE” (CULLGEN (SHANGHAI), INC., priority 2021, published 2024)

Experiments:
Format in all cases: cell-based
[1] = system: KM12 cells; test: KM12 cell viability assay (CellTiter-Glo); conditions: Homo sapiens, 72 h; KM12 cells, 3 days, CellTiter-Glo
Description: The kinase activity of TRK is known to play important roles in tumors expressing TRK-fusion proteins, as TRK kinase inhibitors compromise cell proliferation, survival, and induce marked clinical responses (Amatu et al., 2016; Drilon et al., 2018; Drilon et al., 2017; Khotskaya et al., 2017). KM12 cells seeded in 96-well plates were treated with heterobifunctional compounds following a 11-point 3-fold serial dilution. Three days after treatment, cell viability was determined using the CellTiter-Glo kit, and normalized to the mean values of 3 replicates of untreated cells. Dose-dependent response was analyzed following the least-squares non-linear regression method using the GraphPad Prism software. Each data point in the figure represents the mean values of three technical replicates ±standard deviation.
KM12 cells seeded in 96-well plates were treated with heterobifunctional compounds following a 11-point 3-fold serial dilution for 3 days.
(§1) KM12, TRKA G595R mutated KM12, HEL, and other cells were cultured at 37° C. with 5% CO2 in DMEM or RPMI 1640 Medium supplemented with 10% fetal bovine serum. Cells were authenticated using the short tandem repeat (STR) assays. Mycoplasma test results were negative.
(§2) Cells were seeded at a density of 5000 cells per well in 96-well assay plates and treated with test compounds following a 11-point 3-fold serial dilution. Three days later, cell viability was determined using the CellTiter-Glo assay kit (Promega) according to the manufacturer's instructions. The dose-response curves were determined and IC50 values were calculated using the GraphPad Prism software following a nonlinear regression (least squares fit) method.

[2] = target: T1, TPM3-TRKA fusion protein (Homo sapiens, UniProt P04629); test: TPM3-TRKA degradation in KM12 cells (Western blot); conditions: 16 hours, TRK protein, immunoblot; for inhibition at 0.1 µM: 100 nM; for inhibition at 0.01 µM: 10 nM
T1 construct: TPM3 (N-terminal part of tropomyosin alpha-3, natural fusion partner); endogenous in cells; host or cells: KM12 colon cancer cells; the other entry of the earlier key: TPM3 (P06753, Tropomyosin alpha-3 chain)
T1 sequence (P04629 with tags, fused parts or gaps): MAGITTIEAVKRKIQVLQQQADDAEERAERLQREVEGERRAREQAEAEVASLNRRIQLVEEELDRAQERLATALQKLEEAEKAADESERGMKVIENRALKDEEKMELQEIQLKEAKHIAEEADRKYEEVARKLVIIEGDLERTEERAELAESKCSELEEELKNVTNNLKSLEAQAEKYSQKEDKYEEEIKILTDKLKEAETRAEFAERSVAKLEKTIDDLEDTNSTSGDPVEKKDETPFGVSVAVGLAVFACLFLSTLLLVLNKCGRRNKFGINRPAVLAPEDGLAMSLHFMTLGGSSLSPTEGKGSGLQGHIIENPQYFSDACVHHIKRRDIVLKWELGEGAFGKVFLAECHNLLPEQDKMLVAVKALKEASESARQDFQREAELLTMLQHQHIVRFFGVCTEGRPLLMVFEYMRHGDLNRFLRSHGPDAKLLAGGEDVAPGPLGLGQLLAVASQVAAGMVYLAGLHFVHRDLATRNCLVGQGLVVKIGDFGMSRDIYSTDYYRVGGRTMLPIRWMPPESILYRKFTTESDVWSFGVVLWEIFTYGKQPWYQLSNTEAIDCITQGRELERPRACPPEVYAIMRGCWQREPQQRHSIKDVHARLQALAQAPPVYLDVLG
Description: Specific exemplary heterobifunctional compounds were characterized in KM12 cells. KM12 cells that express TPM3-TRKA fusion protein were treated with 10 nM or 100 nM heterobifunctional compounds disclosed herein or their corresponding warheads/inhibitors for 16 hours. Cells were collected, lysed and subject to immunoblotting using an antibody specific to TRK proteins.
KM12 cells were treated with heterobifunctional compounds at 10 nM or 100 nM for 16 hours.
Cultured cells were washed with cold PBS once and lysed in cold RIPA buffer supplemented with protease inhibitors and phosphatase inhibitors (Beyotime Biotechnology). The solutions were then incubated at 4° C. for 30 minutes with gentle agitation to fully lyse cells. Cell lysates were centrifuged at 13,000 rpm for 10 minutes at 4° C. and pellets were discarded. Total protein concentrations in the lysates were determined by BCA assays (Beyotime Biotechnology). Cell lysates were mixed with Laemmli loading buffer to 1× and heated at 99° C. for 5 min. Proteins were resolved on SDS-PAGE and visualized by chemiluminescence. Images were taken by a ChemiDoc MP Imaging system (Bio-Rad). Protein bands were quantitated using the software provided by Bio-Rad.
The percentage of TRK protein degradation of each compound at 10 nM and 100 nM was determined in KM12 cells as described in Methods. The percentage of degradation of each compound was indicated in the following categories: N/A: data not available; −: no degradation; +: degradation less than 50%; ++: degradation equal or greater than 50% but less than […]; +++: degradation equal or greater than 80%.

[3] = system: TRKA G595R mutated KM12 cells; test: Cell viability assay in TRKA G595R mutated KM12 cells (CellTiter-Glo); conditions: Homo sapiens, 72 h, 3 days
Description: as §1, §2
The activities of selected compounds on cell viability (IC50 values) and TMP3-TRKA degradation (percentage degradation at 10 nM) in KM12 cells or KM12-G595R mutated KM12 cells (KM12-G595R) are listed in Table 2.

| SMILES | IC50 [1] [nM] | inhibition at 0.1 µM [2] [%] | IC50 [3] [nM] | inhibition at 0.01 µM [2] [%] |
| --- | --- | --- | --- | --- |
| COCCN1C[C@@H](NC(=O)Nc2c(C)c(-c3cnc(N4CCN(C(=O)CCCCCOc5cc(-c6scnc6C)ccc5CNC(=O)[C@@H]5C[C@@H](O)CN5C(=O)[C@@H](NC(=O)C5(F)CC5)C(C)(C)C)CC4)nc3)nn2-c2ccccc2)[C@H](c2cccc(F)c2)C1 [CPD-020, (2S,4R)-1-((S)-2-(1-fluorocyclopropane-1-carboxamido)-3,3-dimethylbutanoyl)-N-(2-((6-(4-(5-(5-(3-((3S,4R)-4-(3-fluorophenyl)-1-(2-methoxyethyl)pyrrolidin-3-yl)ureido)-4-methyl-1-phenyl-1H-pyrazol-3-yl)pyrimidin-2-yl)piperazin-1-yl)-6-oxohexyl)oxy)-4-(4-methylthiazol-5-yl)benzyl)-4-hydroxypyrrolidine-2-carboxamide] | 293 | 50 to 800 |  |  |
| COCCN1C[C@@H](NC(=O)Nc2c(C)c(-c3cnc(N4CCN(C(=O)COc5ccc6c(c5)C(=O)N(C5CCC(=O)NC5=O)C6=O)CC4)nc3)nn2-c2ccccc2)[C@H](c2cccc(F)c2)C1 (stereo partly drawn) [CPD-023, 1-(3-(2-(4-(2-((2-(2,6-dioxopiperidin-3-yl)-1,3-dioxoisoindolin-5-yl)oxy)acetyl)piperazin-1-yl)pyrimidin-5-yl)-4-methyl-1-phenyl-1H-pyrazol-5-yl)-3-((3S,4R)-4-(3-fluorophenyl)-1-(2-methoxyethyl)pyrrolidin-3-yl)urea] | 6.46 | > 80 | 44 | > 80 |
| COCCN1C[C@@H](NC(=O)Nc2c(C)c(-c3cnc(N4CCN(C(=O)COc5cccc6c5C(=O)N(C5CCC(=O)NC5=O)C6=O)CC4)nc3)nn2-c2ccccc2)[C@H](c2cccc(F)c2)C1 (stereo partly drawn) [CPD-024, 1-(3-(2-(4-(2-((2-(2,6-dioxopiperidin-3-yl)-1,3-dioxoisoindolin-4-yl)oxy)acetyl)piperazin-1-yl)pyrimidin-5-yl)-4-methyl-1-phenyl-1H-pyrazol-5-yl)-3-((3S,4R)-4-(3-fluorophenyl)-1-(2-methoxyethyl)pyrrolidin-3-yl)urea] | 86.9 | 50 to 800 | 314 | < 50 |
| COCCN1C[C@@H](NC(=O)Nc2c(C)c(-c3cnc(N4CCN(C(=O)CCc5cccc6c5C(=O)N(C5CCC(=O)NC5=O)C6=O)CC4)nc3)nn2-c2ccccc2)[C@H](c2cccc(F)c2)C1 (stereo partly drawn) [CPD-025, 1-(3-(2-(4-(3-(2-(2,6-dioxopiperidin-3-yl)-1,3-dioxoisoindolin-4-yl)propanoyl)piperazin-1-yl)pyrimidin-5-yl)-4-methyl-1-phenyl-1H-pyrazol-5-yl)-3-((3S,4R)-4-(3-fluorophenyl)-1-(2-methoxyethyl)pyrrolidin-3-yl)urea] | 30 | 50 to 800 | 158 | < 50 |
| COCCN1C[C@@H](NC(=O)Nc2c(C)c(-c3cnc(N4CCN(C(=O)CCc5ccc6c(c5)C(=O)N(C5CCC(=O)NC5=O)C6=O)CC4)nc3)nn2-c2ccccc2)[C@H](c2cccc(F)c2)C1 (stereo partly drawn) [CPD-026, 1-(3-(2-(4-(3-(2-(2,6-dioxopiperidin-3-yl)-1,3-dioxoisoindolin-5-yl)propanoyl)piperazin-1-yl)pyrimidin-5-yl)-4-methyl-1-phenyl-1H-pyrazol-5-yl)-3-((3S,4R)-4-(3-fluorophenyl)-1-(2-methoxyethyl)pyrrolidin-3-yl)urea] | 42.1 | > 80 | 301 | > 80 |
| COCCN1C[C@@H](NC(=O)Nc2c(C)c(-c3cnc(N4CCN(CCOc5cccc6c5C(=O)N(C5CCC(=O)NC5=O)C6=O)CC4)nc3)nn2-c2ccccc2)[C@H](c2cccc(F)c2)C1 (stereo partly drawn) [CPD-027, 1-(3-(2-(4-(2-((2-(2,6-dioxopiperidin-3-yl)-1,3-dioxoisoindolin-4-yl)oxy)ethyl)piperazin-1-yl)pyrimidin-5-yl)-4-methyl-1-phenyl-1H-pyrazol-5-yl)-3-((3S,4R)-4-(3-fluorophenyl)-1-(2-methoxyethyl)pyrrolidin-3-yl)urea] | 3.13 | 50 to 800 | 4.47 | 50 to 800 |
| COCCN1C[C@@H](NC(=O)Nc2c(C)c(-c3cnc(N4CCN(CCOc5ccc6c(c5)C(=O)N(C5CCC(=O)NC5=O)C6=O)CC4)nc3)nn2-c2ccccc2)[C@H](c2cccc(F)c2)C1 (stereo partly drawn) [CPD-028, 1-(3-(2-(4-(2-((2-(2,6-dioxopiperidin-3-yl)-1,3-dioxoisoindolin-5-yl)oxy)ethyl)piperazin-1-yl)pyrimidin-5-yl)-4-methyl-1-phenyl-1H-pyrazol-5-yl)-3-((3S,4R)-4-(3-fluorophenyl)-1-(2-methoxyethyl)pyrrolidin-3-yl)urea] | 4.1 | 50 to 800 | 30.4 | > 80 |
| COCCN1C[C@@H](NC(=O)Nc2c(C)c(-c3cnc(N4CCN(CCCc5cccc6c5C(=O)N(C5CCC(=O)NC5=O)C6=O)CC4)nc3)nn2-c2ccccc2)[C@H](c2cccc(F)c2)C1 (stereo partly drawn) [CPD-029, 1-(3-(2-(4-(3-(2-(2,6-dioxopiperidin-3-yl)-1,3-dioxoisoindolin-4-yl)propyl)piperazin-1-yl)pyrimidin-5-yl)-4-methyl-1-phenyl-1H-pyrazol-5-yl)-3-((3S,4R)-4-(3-fluorophenyl)-1-(2-methoxyethyl)pyrrolidin-3-yl)urea] | 13.4 | 50 to 800 | 277 | < 50 |
| COCCN1C[C@@H](NC(=O)Nc2c(C)c(-c3cnc(N4CCN(CCNc5cccc6c5C(=O)N(C5CCC(=O)NC5=O)C6=O)CC4)nc3)nn2-c2ccccc2)[C@H](c2cccc(F)c2)C1 (stereo partly drawn) [CPD-030, 1-(3-(2-(4-(2-((2-(2,6-dioxopiperidin-3-yl)-1,3-dioxoisoindolin-4-yl)amino)ethyl)piperazin-1-yl)pyrimidin-5-yl)-4-methyl-1-phenyl-1H-pyrazol-5-yl)-3-((3S,4R)-4-(3-fluorophenyl)-1-(2-methoxyethyl)pyrrolidin-3-yl)urea] | 1.09 | 50 to 800 | 5.13 | 50 to 800 |
| COCCN1C[C@@H](NC(=O)Nc2c(C)c(-c3cnc(N4CCN(CCCc5ccc6c(c5)C(=O)N(C5CCC(=O)NC5=O)C6=O)CC4)nc3)nn2-c2ccccc2)[C@H](c2cccc(F)c2)C1 (stereo partly drawn) [CPD-032, 1-(3-(2-(4-(3-(2-(2,6-dioxopiperidin-3-yl)-1,3-dioxoisoindolin-5-yl)propyl)piperazin-1-yl)pyrimidin-5-yl)-4-methyl-1-phenyl-1H-pyrazol-5-yl)-3-((3S,4R)-4-(3-fluorophenyl)-1-(2-methoxyethyl)pyrrolidin-3-yl)urea] | 13.7 | > 80 | 18.2 | > 80 |
| COCCN1C[C@@H](NC(=O)Nc2c(C)c(-c3cnc(N4CCN(CCc5ccc6c(c5)C(=O)N(C5CCC(=O)NC5=O)C6=O)CC4)nc3)nn2-c2ccccc2)[C@H](c2cccc(F)c2)C1 (stereo partly drawn) [CPD-033, 1-(3-(2-(4-(2-(2-(2,6-dioxopiperidin-3-yl)-1,3-dioxoisoindolin-5-yl)ethyl)piperazin-1-yl)pyrimidin-5-yl)-4-methyl-1-phenyl-1H-pyrazol-5-yl)-3-((3S,4R)-4-(3-fluorophenyl)-1-(2-methoxyethyl)pyrrolidin-3-yl)urea] | 14.4 | 50 to 800 | 94.6 | 50 to 800 |
